Data set [1] deals with SH-SY5Y cells. The data set is described as follows: Cytoprotection against H2O2 (100 µM), MTT. The settings on record: for Cells viability (%) ± SD after 24 h of incubation with compound and H2O2: H2O2 100 µM, H2O2 only 82.74%.
For data set [2], the system named is HT-29 cells. The data set is described as follows: MTT cytotoxicity assay, HT-29. To be noted: Homo sapiens, HT-29; MTT, 24 h incubation; read-out: IC50 µM ± SD against HT-29. Type of data set: cell-based. The text has this:
The MTT assay was used to evaluate cell metabolic activity. The test principle is based on the determination of cell viability by measuring the metabolic activity in mitochondria. Enzymatically active mitochondria reduce the water-soluble MTT (3-(4,5-dimethylthiazol-2-yl)-2,5 diphenyltetrazoliumbromide) to blue–violet insoluble formazan. The number of viability cells is proportional to the colour intensity determined by photometric measurements (an analytical wavelength 570 nm) after dissolving the formazan in Dimethylsulfoxide (DMSO) (Serva) and Sorensen’s glycine buffer. MTT (Sigma Aldrich) was dissolved in Phosphate Buffered Saline (PBS) (PAN-Biotech) at a concentration of 0.5 mg/mL. Sorensen’s glycine buffer is made of 0.1 M glycine and 0.1 M NaCl, at pH 10.5. Studied compounds were dissolved in DMSO in order to receive stock solutions.
For the assay, cells were seeded into 96-well plates at density 10^4 cells per well and cultured for 24 h at 37 °C and 5% CO2. Then medium was removed, and cells were exposed to the 100 µL of the compound solutions over a range of concentrations (final DMSO concentration was below 0.2%) or nothing but culture medium (blank control). Pure DMSO was used as a positive control. After 24 h of incubation with the compound solutions, medium was removed and 50 µL of the MTT solution was added to each well and incubated in the dark for additional 2 h at 37 °C. Then the MTT solution was carefully removed and 100 µL of DMSO was added. Plates were incubated for 10 min at room temperature. Finally, 5 µL of Sorensen Buffer was added to each well. Plate was swayed, and the absorbance was measured by using microplate reader (Synergy H1, BioTek, Winooski, VT, USA) at a wavelength of 570 nm. The cell viability was expressed as a percentage of the control values (blank). The experiments were done in triplicate.
In general terms: Tetrazolium assays rely on reduction of a dye to a coloured formazan, in cell work by metabolically active cells.

In data set [3] the test system is A549 cells. The data set is described as follows: Apoptosis assay by annexin-V/PI double staining, A549. It counts as cell-based, human. The settings on record: A549, 24 h, compound at 2xIC50 (1i 29.74 µM); control 7.80%. On the procedure: (§1) Compounds were added to the cells and further incubated for 24 h. After treatment, monolayer and supernatant cells were harvested, washed with PBS and centrifuged (monolayer at 1200 rpm for 10 min, supernatant at 3500 rpm for 10 min). Then, cells were re-suspended in binding buffer and stained with 2 µL of Annexin-V and […] of PI (ANNEXIN-V—FITC Apoptosis Detection Kit, Immunostep) in the dark for 10 min at room temperature. Cells were analysed by BD Accuri C6 Flow Cytometry (Becton–Dickinson). Etoposide (Calbiochem) was used as a reference drug. Experiments were done in triplicates.

Data set [4] relates to supercoiled pUC19 DNA. To be noted: 100 µM; human Topoisomerase I.
Data set [5] relates to γ-H2AX. In words: Western blot of γ-H2AX, A549. It counts as cell-based, human. The settings on record: A549, 24 h, IC50 and 1/2IC50. On the procedure:
(§2) Then, cells were treated with chosen compounds. After 24 h of incubation, monolayer and supernatant were harvested and washed in cold PBS. Cells were centrifuged—monolayer at 1200 rpm for 10 min, supernatant 3500 rpm for 10 min. Pellets were dissolved in RIPA Lysis and Extraction buffer (Bio-Rad) containing Phosphatase Inhibitor Cocktail 3 (Sigma Aldrich) and Protease Inhibitor Cocktail (Sigma Aldrich). Samples were incubated in ice for 30 min and mixed every 10 min. Then, samples were centrifuged at 12,000 rpm for 25 min. Protein concentration in supernatants was measured in triplicate using a Protein Assay (Bio-Rad). Proteins were separated by SDS–polyacrylamide gel electrophoresis. Separating and stacking gels were made of different ratios of water, Tris–HCl pH 6.8 and pH 8.8, 10% SDS (Sigma Aldrich), Acrylamide/bis-acrylamide (Sigma Aldrich), 10% APS (Sigma Aldrich), TEMED (Sigma Aldrich). 7.5% gels were prepared for analysis PARP-1, whereas 12% gels prepared for γ-H2AX. After separation on SDS–polyacrylamide gels, proteins were electroblotted on nitrocellulose membrane in Transfer Buffer (Glycine, Tris, Methanol). Membranes were washed in TBS/0.1% or 0.05% Tween20 solution and blocked in Tris-buffered saline with 5% of non-fated dried milk for 1 h. Membranes were then incubated overnight with primary antibodies—anti-PARP-1 (Cell Signaling Technology), anti-γ-H2A.X (Cell Signaling Technology), anti-β-actin (Cell Signaling Technology) in cold room (6 °C). After incubation, membranes well washed with TBS/Tween solution and blocked with and horseradish peroxidase-conjugated secondary antibodies (Bio-Rad) for 1 h in cold room. Protein bands were visualized using ECL™ Prime Western Blotting Detection Reagents (Sigma Aldrich) Healthcare and Carestream Kodak autoradiography GBX fixer/replenisher (Sigma Aldrich) with Developer and Replenisher (Carestream) in the dark room. Results were obtained on Autoradiography Film (Santa Cruz Biotechnology). Densitometric analysis was performed by using a software program (ImageJ). […]
(In general: A western blot detects proteins with antibodies after separation by electrophoresis.)

In data set [6] the test system is SH-SY5Y cells. The data set is described as follows: Cytoprotection against rotenone/oligomycin A, pre-incubation, MTT.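 For Cytoprotection: Toxic mixture Rotenone 30 µM plus Oligomycin A 10 µM.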 It counts as cell-based, human. The settings on record: for Cytoprotection: pre-incubation with rotenone/oligomycin A; for Cytoprotective properties in the pre-incubation assay (in words): rotenone/oligomycin A, range of concentration 1–0.001 µM. On the procedure: Rotenone with oligomycin A (R/O) were taken to induce mitochondrial ROS by blocking of complexes I and V of the mitochondrial electron transport chain. It causes free radical production and blockade of ATP synthesis. In the pre-incubation experiment, it could be assessed whether the compounds have cytoprotective properties due to the activation of endogenous antioxidant pathways. In the co-incubation could be shown whether compounds are free-radical scavengers. MTT assay was a test of choice, because in this assay mitochondrial activity is measured. […] It can be determined whether novel compound would protect cells from both apoptotic and necrotic death resulting from the increase of intracellular ROS. In both experiments, trolox was used as a reference compound. […] After this time, toxic mixture was added, and cells were maintained for an additional 24 h in the presence of the compounds.

Data set [7] deals with A549 cells. The data set is described as follows: Colony forming assay, A549. Type of data set: cell-based, human. An excerpt:
The plates were placed on ice.

The subject of data set [8] is 253J B-V and 253J B-V cisplatin-resistant cells.
Data set [9] concerns γ-H2AX. The data set is described as follows: Western blot of γ-H2AX, HT-29. Type of data set: cell-based, human. The settings on record: HT-29, 24 h, IC50 and 1/2IC50. Here is the method:
as §2

Data set [10] concerns HT-29 cells. The data set is described as follows: Apoptosis assay by annexin-V/PI double staining, HT-29. It counts as cell-based, human. The settings on record: HT-29, 24 h, compound at IC50 (1i 5.90 µM); control 8.62%. On the procedure:
as §1

The test system of data set [11] is PARP-1. The data set is described as follows: Western blot of PARP-1 cleavage, HT-29. The settings on record: HT-29, 24 h, IC50 and 1/2IC50. It counts as cell-based, human. On the procedure:
as §2

Where [12] appears, read: Homo sapiens, 24 h, read-out: Cells viability (%) ± SD after 24 h of incubation with compound and H2O2.

With `O=C(NCCCNc1c2c(nc3ccccc13)CCCC2)c1cccc(I)c1` [Compound 1e], in data set [1] (setting [12]), the viability (commonly a read-out of living cells in per cent, often relative to untreated cells) at 1 µM amounted to 89.8 ± 8.55%. For the same molecule, in [2], the 50% inhibitory concentration (IC50) – broadly, the concentration at which inhibition is half-maximal – is 11 ± 0.59 µM. Further, in data set [3], the Total apoptotic cells is given as 44.96%. The “Intercalation: supercoiled pUC19 DNA band (in words)” value (“Intercalation … (in words)” for short) in [4] is “bands at the same level as EB”. The “γ-H2AX protein level / DNA damage (in words)” value in data set [5] is “strongest effect”. Further, the Cytoprotection in data set [6] (0.001 µM) was 36.22%; in data set [6] (0.01 µM), 51.19%; in data set [6] (0.1 µM), 46.39%; in [6] (1 µM) it was 24.79%. The “Cytoprotective properties in the pre-incubation assay (in words)” value (shortened to “Cytoprotective properties”) in [6] is “showed their action against oxidative stress in the whole range of concentrations”.

Take `O=C(NCCCNc1c2c(nc3ccccc13)CCCC2)c1ccccc1I` [Compound 1b]: the “Number of colonies expressed as percent of control number” value in data set [7] (compound at 2xIC50) was 3.55%. Moreover, the “Cells viability (%) ± SD after 24 h of incubation with compound and H2O2” value was 64.61 ± 4.88 % in data set [1] (concentration: 1b 16.26, 1c 6.79, 1e 11.75, 1f 4.26, 1i 5.90 µM) and 17.21 ± 1.18 % in [1] (concentration: 1b 65.04, 1c 27.16, 1e 46.98, 1f 17.04, 1i 29.74 µM). Besides, the viability at 1 µM in [1] (setting [12]) came out at 99.2 ± 1.67%. For the same molecule, the “Cytotoxic effect on cisplatin-resistant versus non-resistant 253J B-V cells (in words)” value in data set [8] is “resistant cells were more sensitive”. For the same molecule, the IC50 in [2] is 16.1 ± 1.55 µM. Further, in [3], the Total apoptotic cells came out at 45.31%. Besides, the “Intercalation … (in words)” value in data set [4] was “bands at the same level as EB”. Further, in data set [5], the “γ-H2AX protein level / DNA damage (in words)” value is given as “slightly lower”. Moreover, the “Cytoprotective properties” value in data set [6] is “did not show cytoprotective properties”.

Take `O=C(NCCCCNc1c2c(nc3ccccc13)CCCC2)c1ccccc1I` [Compound 1c]: the viability at 1 µM in data set [1] (setting [12]) came out at 101 ± 1.19%. For the same molecule, the “Cytotoxic effect on cisplatin-resistant versus non-resistant 253J B-V cells (in words)” value in data set [8] is reported as “resistant cells were more sensitive”. The “γ-H2AX protein level / DNA damage (in words)” value in data set [9] is “lowest effect on DNA damage”. In data set [2], the IC50 amounted to 13.6 ± 1.39 µM. The Total apoptotic cells in data set [10] is 12.96%. The “Intercalation … (in words)” value in [4] is recorded as “bands at the same level as EB”. Moreover, the Cytoprotection in data set [6] (0.001 µM) is 32.91%; in data set [6] (0.01 µM) it was 37.05%; in [6] (0.1 µM), 33.15%; in [6] (1 µM) it was 33.92%. The “Cytoprotective properties” value in data set [6] is reported as “showed their action against oxidative stress in the whole range of concentrations”. In data set [11], the “Cleaved PARP-1 (89 kDa) level (in words)” value is reported as “lower apoptosis at IC50 concentrations”.

Regarding `O=C(NCCCCNc1c2c(nc3ccccc13)CCCC2)c1ccc(I)cc1` [Compound 1i], the “Number of colonies expressed as percent of control number” value in [7] (compound at 1/2IC50) is reported as 39.47%; in data set [7] (compound at 2xIC50) it was 0%; in [7] (compound at IC50) it was 4.70%. Moreover, in [1] (H2O2 100 µM, 29.74, 14.87, 5.90 and 1 µM), the “Neuroprotection against H2O2 (in words)” value is “neuroprotection was not observed at any dose”. Besides, the viability at 1 µM in data set [1] (setting [12]) was determined as 29.7 ± 3.39%. In addition, the viability at 5.9 µM in data set [1] (setting [12]) was determined as 25.9 ± 1.24%. The viability at 14.87 µM in data set [1] (setting [12]) came to 20.7 ± 1.45%. Further, in [1] (setting [12]), the viability at 29.74 µM is 18.7 ± 1.25%. Moreover, the “γ-H2AX protein level / DNA damage (in words)” value in data set [9] is on record as “strongest H2AX phosphorylation”; in data set [5], “higher ability to damage DNA at 1/2IC50 concentration (7.44 µM) than at IC50 concentration (14.87 µM)”. The IC50 in data set [2] was found to be 5.9 ± 0.42 µM. For the same molecule, the Total apoptotic cells turned out to be 71.98% in [3] and 11.80% in data set [10]. Further, the “Cytoprotective properties” value in data set [6] is on record as “did not show cytoprotective properties”. For the same molecule, the “Cleaved PARP-1 (89 kDa) level (in words)” value in data set [11] was “highest PARP-1 cleavage”.

The values above are taken from paper PMC6745035, “Novel tetrahydroacridine derivatives with iodobenzoic moieties induce G0/G1 cell cycle arrest and apoptosis in A549 non-small lung cancer and HT-29 colorectal cancer cells” (Molecular and Cellular Biochemistry, 2019).
